Experimental data as given in US20230416675A1, “EFFICIENT AND RAPID SPECIFICATION OF SPINAL NEURONAL SUBTYPES FROM HUMAN PLURIPOTENT STEM CELLS” (INSERM (INSTITUT NATIONAL DE LA SANTE ET DE LA RECHERCHE …, priority 2020, published 2023).
“Also recorded” adds a separate entry of the source.

Key:
Assay type in all cases: cell-based, human
induced PSC (iPSC) line = test: Induction of CDX2-expressing axial progenitors in an induced PSC line; details: CHIR increased from 3 to 4 μM
Protocol: Human PSC embryoid body-based differentiation was performed as previously described (Maury et al., 2015). hPSC were dissociated with cold Accutase (Life Technologies) for 3 to 5 min at 37° C. and resuspended in differentiation medium N2B27 (Advanced DMEM F12, Neurobasal vol:vol (Life Technologies)), supplemented with N2 (Life Technologies), B27 without Vitamin A (Life technologies), penicillin/streptomycin 1%, β-Mercaptoéthanol 0.1% (Life Technologies), with Y-27632 (10 μM, Stemgent or Stem Cell Technologies), CHIR-99021 (3 μM or 4 μM Selleckchem) SB431542 (20 μM, Selleckchem) and LDN 193189 (0.1 μM, Selleckchem). 2×10^5 cells ml^-1 were seeded in ultra-low attachment 6 well plates (Corning) to form embryoid bodies (EBs). All conditions of differentiation received the same medium at day 2 and at day 3 but SB431542 was removed at day 3. Then, the differentiation proceeded according to the […] presented above the figures. SAG (Smoothened Agonist, Merck millipore), FGF2 (Recombinant Human FGF basic, Peprotech), RA (Sigma-Aldrich), GDF11 (Recombinant Human/Murine/Rat GDF11, Peprotech), PD0325901 (Selleckchem), PD173074, SCH772984 (Selleckchem), DAPT (Stemgent) were added at indicated time points. For concentrations see Table S2. Media were changed every other day unless specified. […]

[1] = test system: hPSC-derived axial progenitors; test: Motor neuron (MN) subtype specification: immunostaining of embryoid bodies on day 14 of differentiation, proportion of MNs (ISL1+ cells) expressing HOX/FOXP1/SCIP markers; details: for rostro-caudal identity of MNs generated: inhibitor added at D3 up to D7, RA/SAG at D7; for efficiency of MN generation: inhibitor from D3 to D7, RA/SAG at D7; for MN identities induced: extrinsic cue added on D3 with RA/SAG, all concentrations and durations
Protocol: (§1) Human PSC embryoid body-based differentiation was performed as previously described (Maury et al., 2015). hPSC were dissociated with cold Accutase (Life Technologies) for 3 to 5 min at 37° C. and resuspended in differentiation medium N2B27 (Advanced DMEM F12, Neurobasal vol:vol (Life Technologies)), supplemented with N2 (Life Technologies), B27 without Vitamin A (Life technologies), penicillin/streptomycin 1%, β-Mercaptoéthanol 0.1% (Life Technologies), with Y-27632 (10 μM, Stemgent or Stem Cell Technologies), CHIR-99021 (3 μM or 4 μM Selleckchem) SB431542 (20 μM, Selleckchem) and LDN 193189 (0.1 μM, Selleckchem). 2×10^5 cells ml^−1 were seeded in ultra-low attachment 6 well plates (Corning) to form embryoid bodies (EBs). All conditions of differentiation received the same medium at day 2 and at day 3 but SB431542 was removed at day 3. Then, the differentiation proceeded according to the schemas presented above the figures. SAG (Smoothened Agonist, Merck millipore), FGF2 (Recombinant Human FGF basic, Peprotech), RA (Sigma-Aldrich), GDF11 (Recombinant Human/Murine/Rat GDF11, Peprotech), PD0325901 (Selleckchem), PD173074, SCH772984 (Selleckchem), DAPT (Stemgent) were added at indicated time points. For concentrations see Table S2. Media were changed every other day unless specified.
EBs were collected, rinsed with PBS then fixed with 4% PFA for 5 min at 4° C. and rinsed with PBS 3 times for 5 min. EBs were cryoprotected with 30% sucrose and embedded in OCT (Leica) prior sectioning with a cryostat. Alternatively, day 2, 3 and 4 progenitors were plated on Matrigel (Corning, diluted according to manufacturer recommendation) coated coverslips and let to adhere between for 30 min prior fixation with 4% PFA for 5 min at 4° C.
All immunostainings were performed as follow: cells or sections were incubated with a saturation solution (PBS/FBS 10%/0.2% Triton) for 10 minutes. Primary antibodies (Table S3) were diluted in staining solution (PBS/2% FBS/0.2% Triton) and incubated overnight at 4° C. in a humidified chamber. Following 4 PBS washes (10 min each), secondary antibodies (Alexa488, Alexa568 and Alexa647, Life Technologies, 1:1,000) were added for 1 h at RT. After 3 PBS washes, DAPI was added on the cells (Invitrogen, 1:3,000) for 5 min. Cells or slices were then mounted in Fluoromount (Sigma Aldrich or Cliniscience).
Samples were visualized and imaged using either a ZEISS LSM 880 Confocal Laser Scanning Microscope (Carl Zeiss Microscopy) controlled by Zen black software (Zeiss), a confocal microscope TCS SP5 II (Leica) or a DM6000 microscope (Leica) equipped with CoolSNAP EZ CDD camera, controlled by MetaMorph software (MetaMorph Inc). Alternatively, images were acquired using the automated microscope Cell Discoverer 7 (Zeiss), equipped with an Axiocam 506 m camera, with Zen black software (Zeiss).
All statistics were computed using Graphpad Prism software. One-way analysis of variance (ANOVA) with a Kruskall-Wallis post hoc analysis were performed following normality tests provided by Prism. In all figures, n are independent differentiations started from independent newly thawed hPSCs vials. For each condition at least 4 independent EBs were imaged in which all the cells were quantified by automated image analysis. The images were exported and saved as TIFF with Fiji if needed (Schindelin et al., 2012). Quantitative analyses on images were performed using the CellProfiler software (Carpenter et al., 2006) (Broad Institute open source at www.cellprofiler.org). DAPI stained nucleus were segmented into primary objects using CellProfiler segmentation pipeline and the nuclear mask was used to define objects on the target channels. The threshold to define positive nuclei for a given target was obtained using EBs' section negative for the target of interest. All images across conditions were then automatically analyzed in batch ensuring unbiased analysis. […]

[2] = test system: HOX genes in hPSC-derived axial progenitors; test: Real time PCR analysis of HOX mRNAs in progenitors; details: for temporal increase of HOXC6, C8 and C9 mRNAs in progenitors: inhibitor at D3, progenitors at D4 and D5
Protocol: as §1
Total RNA were extracted (RNAeasy Plus Mini Kit, Qiagen) and cDNA synthesized using SuperScript III (Invitrogen). Quantitative real-time PCR was performed using a 7900HT fast real time PCR system (Applied Biosystems) with Sybr Green PCR Master Mix (Applied Biosystems). Alternatively performed using QuantStudio 5 Real-Time PCR System (Thermofisher Scientific) and a mix with qPCR Brilliant II SYBR MM with low ROX (Agilent). Primers are listed in Supplementary Table 3. All expression data were normalized to Cyclophilin A mRNA. All analyses were performed with three technical replicates per plate. Relative expression levels were determined by calculating 2-ΔΔCt.

[3] = FGF2 15 ng/ml D3 to D9 together with RA/SAG
[4] = FGF2 60 ng/ml D3 to D9 together with RA/SAG
[5] = FGF2 120 ng/ml for 24 h from D3, with RA/SAG
[6] = FGF2 120 ng/ml for 48 h from D3, with RA/SAG
[7] = GDF11 25 ng/ml for 24 h with RA on D3 progenitors

Cc1cnc(-c2cnc(NCCNc3ccc(C#N)cn3)nc2-c2ccc(Cl)cc2Cl)[nH]1 [CHIR, 6-[[2-[[4-(2,4-dichlorophenyl)-5-(5-methyl-1H-imidazol-2-yl)-2 pyrimidinyl]amino]ethyl]amino]-3-pyridinecarbonitrile]
homogenous population of progenitors expressing CDX2 on D3 (induced PSC (iPSC) line): necessary to generate a homogenous population of progenitors expressing CDX2 on D3

CCN(CC)CCCCNc1ncc2cc(-c3cc(OC)cc(OC)c3)c(NC(=O)NC(C)(C)C)nc2n1 [PD173074, reference compound]
rostro-caudal identity of MNs generated [1]: prevent the specification of HOXC8 and HOXC9 MNs; also recorded: anterior brachial identity (HOXC6) | number of EBs collected ([1]; inhibitor from D3 to D7): reduced number of EBs | efficiency of MN generation [1]: not impacted | temporal increase of HOXC6, C8 and C9 mRNAs in progenitors [2]: prevent the temporal increase in caudal HOX expression

O=C(NOC[C@H](O)CO)c1ccc(F)c(F)c1Nc1ccc(I)cc1F [PD0325901, reference compound]
rostro-caudal identity of MNs generated [1]: anterior brachial identity (HOXC6) | rostro-caudal identity of MNs generated ([1]; listed as PD032590): prevent the specification of HOXC8 and HOXC9 MNs | efficiency of MN generation [1]: not impacted | temporal increase of HOXC6, C8 and C9 mRNAs in progenitors [2]: blocked this increase at D4 or D5 | temporal increase of HOXC6, C8 and C9 mRNAs in progenitors ([2]; listed as PD032590): prevent the temporal increase in caudal HOX expression

FGF2: Recombinant Human FGF basic, Peprotech, accession P09038; FGFR agonist
Caudal brachial HOXC8 MNs [1, 3]: 68.2% | HOXC8 MNs, fold increase [1, 3]: 8.6 fold | HOXC9+/HOXC6- thoracic MNs [1, 4]: 58.9% | HOXC9+/HOXC6- thoracic MNs, fold increase [1, 4]: 82.5 fold | HOXC6 MNs ([1]; FGF2 120 ng/ml D3 to D9 together with RA/SAG): reduced slightly more HOXC6 MNs | FOXP1^high/SCIP MNs [1, 5]: 47.9% | HOXC6 MNs [1, 5]: 49.7% | HOXC8 MNs [1, 5]: 79.4% | HOXC9 MNs [1, 5]: 14.7% | FOXP1^high/SCIP MNs [1, 6]: 13.2% | HOXC6 MNs [1, 6]: 7.5% | HOXC9 MNs [1, 6]: 76.4% | MN identities induced [1]: induce more caudal MN subtypes; also recorded: more caudal MN identities were induced without the need of delaying RA addition | HOX gene expression compared to RA/SAG controls ([2]; 24 h and 48 h post FGF2 treatment): precocious increase in HOXC8, HOXC9, HOXD9 and HOXC10 expression

B1: GDF11: Recombinant Human/Murine/Rat GDF11, Peprotech; member of the TGFβ family (protein, UniProt O95390 299-407, looked up)
Growth/differentiation factor …: NLGLDCDEHSSESRCCRYPLTVDFEAFGWDWIIAPKRYKANYCSGQCEYMFMQKYPHTHLVQQANPRGSAGPCCTPTKMSPINMLYFNDKQQIIYGKIPGMVVDRCGCS
caudal thoracic or lumbar identities ([1]; GDF11 25 ng/ml for 24 h or 48 h with RA): none of the more caudal identities were observed | HOXC8 MNs [1, 7]: 58.7% | HOXC9 MNs [1, 7]: 41.0% | anterior thoracic MNs ([1]; GDF11 25 ng/ml for 48 h with RA on D3 progenitors): increasing after 48 h | MN identities induced [1]: induce more caudal MN subtypes
